Laboratory results as given in patent US9133183B2, “Imidazolidinones and analogs exhibiting anti-cancer and anti-proliferative activities” (Deciphera Pharmaceuticals, LLC, priority 2013, dated 2015).
Where two headings read alike, the source gives them in different places.

How the values were obtained:
[1] = system: osteoclast precursors; experiment: Osteoclast tartrate-resistant acid phosphatase assay; type: cell-based; conditions: Osteoclast, 7-14 days, RANKL and M-CSF
[2] = molecular target: c-FMS kinase in THP-1 cells (Homo sapiens (Human), UniProt P07333); experiment: Phospho-FMS ELISA assay in THP-1 cells; type: cell-based; conditions: 4 h compound, M-CSF stimulation 5 min; read-out: pFMS inhibition in THP-1 cells
Method: THP-1 cells (catalog #TIB-202) were obtained from the ATCC. Briefly, cells were grown in RPMI 1640 supplemented with 10% characterized fetal bovine serum, 1% sodium pyruvate, 1% Penicillin-Streptomycin-Glutamine (PSG) and 55 uM 2-mercaptoethanol (Invitrogen, Carlsbad, Calif.) at 37 degrees Celsius, 5% CO2, 95% humidity. Cells were allowed to expand until reaching 70-95% confluency at which point they were subcultured or harvested for assay use.
A serial dilution of test compound was diluted 1:100 in assay medium (RPMI 1640 supplemented with 10% characterized fetal bovine serum) in a 96 well black clear bottom plate (Corning, Corning, N.Y.). In a separate 96 well black clear bottom plate, one hundred and fifty thousand THP-1 cells were added per well in 100 μL in assay medium. Fifty microliters of diluted compound was then added to the cells. Plates were incubated for 4 hours at 37 degrees Celsius, 5% CO2, 95% humidity. At the end of the incubation period, cells were stimulated with 50 μL of a 100 nM solution of recombinant human M-CSF (catalog #216-MC, R & D Systems, Minneapolis, Minn.) in assay medium and the plate was incubated for 5 minutes at 37 degrees Celsius, 5% CO2, 95% humidity. Lysates were prepared and used to perform the phospho-FMS ELISA as described by the manufacturer (catalog #DYC3268, R & D Systems, Minneapolis, Minn.). GraphPad Prism was used to calculate IC50 values obtained from data generated from the ELISA assay.

[3] = molecular target: unphosphorylated c-KIT kinase (uKIT, Seq. ID no. 2) (Homo sapiens (Human), UniProt P10721); experiment: uKit kinase assay (coupled pyruvate kinase/lactate dehydrogenase); type: biochemical; conditions: enzymatic assay, ATP 2000 μM
Summary of the method: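 Unphosphorylated KIT (12 nM, N-terminal GST fusion) was run with 1 mg/mL polyE4Y, 2000 μM ATP and 10 mM MgCl2 in Tris buffer (pH 7.5, 0.2% octyl-glucoside, 1% DMSO). ADP was coupled via PK/LDH, with NADH loss tracked at A340 for 4 h at 30 °C. Rates at 3–4 h gave % inhibition and IC50.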

[4] = molecular target: unphosphorylated c-FMS kinase (uFMS, Seq. ID no. 1) (Homo sapiens (Human), UniProt P07333); experiment: uFMS kinase assay (ADP production coupled to pyruvate kinase/lactate dehydrogenase); type: biochemical
Summary of the method: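 Unphosphorylated FMS (10 nM) with polyE4Y 1 mg/mL and 500 μM ATP in 90 mM Tris pH 7.5, 10 mM MgCl2, 0.2% octyl-glucoside, 1% DMSO. ADP formation was coupled via pyruvate kinase/LDH to NADH oxidation, followed at A340 for 4 h at 30° C.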

[5] = system: M-NFS-60 cells; experiment: M-NFS-60 cell proliferation assay (resazurin); type: cell-based; conditions: 67 h incubation
Summary of the method: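 Cells kept in medium containing 20 ng/mL mouse recombinant M-CSF. Fluorescence was read at ex 540/em 600 nm, and IC50 was fitted from percent inhibition across a range of inhibitor concentrations.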

[6] = enzymatic assay, ATP 500 μM, read-out: uFMS

Chain of unphosphorylated c-FMS kinase (uFMS, Seq. ID no. 1) (P07333 538-972): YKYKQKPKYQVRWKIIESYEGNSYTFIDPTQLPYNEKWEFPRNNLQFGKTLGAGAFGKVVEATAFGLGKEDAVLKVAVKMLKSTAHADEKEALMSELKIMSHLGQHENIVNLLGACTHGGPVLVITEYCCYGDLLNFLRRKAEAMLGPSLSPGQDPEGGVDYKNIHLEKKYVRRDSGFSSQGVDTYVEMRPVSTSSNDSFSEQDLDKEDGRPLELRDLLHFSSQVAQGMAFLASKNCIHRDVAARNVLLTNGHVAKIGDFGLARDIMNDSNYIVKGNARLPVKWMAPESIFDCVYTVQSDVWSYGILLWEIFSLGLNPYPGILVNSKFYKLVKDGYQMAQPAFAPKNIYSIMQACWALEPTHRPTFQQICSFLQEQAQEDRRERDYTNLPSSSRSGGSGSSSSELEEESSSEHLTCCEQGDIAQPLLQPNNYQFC
Chain of c-FMS kinase in THP-1 cells (P07333 20-972): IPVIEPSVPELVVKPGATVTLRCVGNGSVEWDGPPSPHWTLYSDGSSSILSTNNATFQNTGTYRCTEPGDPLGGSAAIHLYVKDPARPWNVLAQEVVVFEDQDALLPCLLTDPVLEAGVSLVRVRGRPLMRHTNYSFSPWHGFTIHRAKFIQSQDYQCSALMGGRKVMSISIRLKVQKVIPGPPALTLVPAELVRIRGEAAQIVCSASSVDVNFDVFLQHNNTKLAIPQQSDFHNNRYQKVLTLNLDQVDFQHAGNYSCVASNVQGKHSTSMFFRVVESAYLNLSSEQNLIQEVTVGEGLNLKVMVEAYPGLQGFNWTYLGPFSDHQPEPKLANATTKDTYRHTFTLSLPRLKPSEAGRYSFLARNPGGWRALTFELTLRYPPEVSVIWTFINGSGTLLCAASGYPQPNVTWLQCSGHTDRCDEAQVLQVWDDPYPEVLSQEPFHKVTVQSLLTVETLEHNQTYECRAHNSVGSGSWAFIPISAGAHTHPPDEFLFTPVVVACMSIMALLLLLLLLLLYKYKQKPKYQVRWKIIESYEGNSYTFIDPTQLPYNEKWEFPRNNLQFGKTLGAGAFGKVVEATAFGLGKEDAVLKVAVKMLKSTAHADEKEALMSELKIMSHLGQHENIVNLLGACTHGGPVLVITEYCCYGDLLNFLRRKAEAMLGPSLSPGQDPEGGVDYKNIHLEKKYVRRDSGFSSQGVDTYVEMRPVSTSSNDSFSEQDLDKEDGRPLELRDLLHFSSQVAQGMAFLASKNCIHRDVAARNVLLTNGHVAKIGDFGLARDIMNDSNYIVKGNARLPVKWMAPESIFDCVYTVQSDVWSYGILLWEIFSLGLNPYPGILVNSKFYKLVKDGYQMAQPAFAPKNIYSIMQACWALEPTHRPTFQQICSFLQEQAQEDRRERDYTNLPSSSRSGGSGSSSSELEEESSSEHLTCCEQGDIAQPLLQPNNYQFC
Chain of unphosphorylated c-KIT kinase (uKIT, Seq. ID no. 2) (P10721 other isoform, or with tags, fused parts or gaps): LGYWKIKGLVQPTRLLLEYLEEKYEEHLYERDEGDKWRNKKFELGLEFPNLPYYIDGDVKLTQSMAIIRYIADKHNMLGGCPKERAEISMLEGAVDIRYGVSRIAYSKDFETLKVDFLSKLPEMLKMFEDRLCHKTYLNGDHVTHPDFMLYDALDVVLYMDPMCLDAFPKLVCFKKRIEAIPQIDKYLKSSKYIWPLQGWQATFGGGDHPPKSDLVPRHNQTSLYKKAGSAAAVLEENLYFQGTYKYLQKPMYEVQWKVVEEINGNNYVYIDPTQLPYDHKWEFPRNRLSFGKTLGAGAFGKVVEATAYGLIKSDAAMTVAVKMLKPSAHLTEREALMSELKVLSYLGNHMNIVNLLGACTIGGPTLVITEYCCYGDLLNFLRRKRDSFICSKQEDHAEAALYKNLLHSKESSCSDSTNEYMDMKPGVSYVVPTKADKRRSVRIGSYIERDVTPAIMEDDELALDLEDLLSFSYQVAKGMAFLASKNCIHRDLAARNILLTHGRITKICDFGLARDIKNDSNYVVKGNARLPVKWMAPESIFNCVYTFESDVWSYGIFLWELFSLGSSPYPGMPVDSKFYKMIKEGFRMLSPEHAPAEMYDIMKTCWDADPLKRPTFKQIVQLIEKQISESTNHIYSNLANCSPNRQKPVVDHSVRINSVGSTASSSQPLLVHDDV

SMILES	IC50 [1] [nM]	IC50 [2] [nM]	IC50 [3] [nM]	IC50 [4, 6] [nM]	IC50 [5] [nM]	IC50 ([4]; Table 4, read-out: c-FMS IC50) [nM]
Cn1cc(-c2cc(Oc3ccc(NC(=O)N4CCN(C5CCOC5)C4=O)nc3)ccn2)cn1 (stereo in doubt) [Example 12, (S)—N-(5-((2-(1-methyl-1H-pyrazol-4-yl)pyridin-4-yl)oxy)pyridin-2-yl)-2-oxo-3-(tetrahydrofuran-3-yl)imidazolidine-1-carboxamide]	< 10	10 to 100	10 to 100	10 to 100	10 to 100	
Cn1cc(-c2cc(Oc3ccc(NC(=O)N4CCN(C5CCOCC5)C4=O)nc3)ccn2)cn1 [Example 1, N-(5-((2-(1-methyl-1H-pyrazol-4-yl)pyridin-4-yl)oxy)pyridin-2-yl)-2-oxo-3-(tetrahydro-2H-pyran-4-yl)imidazolidine-1-carboxamide]	10 to 100	10 to 100	10 to 100	< 10	10 to 100	6
Cc1nc(NC(=O)N2CCN(C3CCOCC3)C2=O)ccc1Oc1ccnc(-c2cnn(C)c2)c1 [Example 3, N-(6-methyl-5-((2-(1-methyl-1H-pyrazol-4-yl)pyridin-4-yl)oxy)pyridin-2-yl)-2-oxo-3-(tetrahydro-2H-pyran-4-yl)imidazolidine-1-carboxamide]	10 to 100	10 to 100	100 to 1000	< 10	10 to 100	
CCn1cc(-c2cc(Oc3ccc(NC(=O)N4CCN(C5CCOCC5)C4=O)nc3)ccn2)cn1 [Example 4, N-(5-((2-(1-ethyl-1H-pyrazol-4-yl)pyridin-4-yl)oxy)pyridin-2-yl)-2-oxo-3-(tetrahydro-2H-pyran-4-yl)imidazolidine-1-carboxamide]	10 to 100	< 10	10 to 100	10 to 100	10 to 100	
Cc1cc(-c2cc(Oc3ccc(NC(=O)N4CCN(C5CCOCC5)C4=O)nc3)ccn2)on1 [Example 7, N-(5-((2-(3-methylisoxazol-5-yl)pyridin-4-yl)oxy)pyridin-2-yl)-2-oxo-3-(tetrahydro-2H-pyran-4-yl)imidazolidine-1-carboxamide]	10 to 100	10 to 100	10 to 100	10 to 100	10 to 100	
COCCN1CCN(C(=O)Nc2ccc(Oc3ccnc(-c4cnn(C)c4)c3)cn2)C1=O [Example 10, 3-(2-methoxyethyl)-N-(5-((2-(1-methyl-11H-pyrazol-4-yl)pyridin-4-yl)oxy)pyridin-2-yl)-2-oxoimidazolidine-1-carboxamide]	10 to 100	< 10	100 to 1000	10 to 100	10 to 100	
COCCCN1CCN(C(=O)Nc2ccc(Oc3ccnc(-c4cnn(C)c4)c3)cn2)C1=O [Example 11, 3-(3-methoxypropyl)-N-(5-((2-(1-methyl-1H-pyrazol-4-yl)pyridin-4-yl)oxy)pyridin-2-yl)-2-oxoimidazolidine-1-carboxamide]	< 10	10 to 100	10 to 100	10 to 100	10 to 100	
COC[C@H](C)N1CCN(C(=O)Nc2ccc(Oc3ccnc(-c4cnn(C)c4)c3)cn2)C1=O [Example 16, (S)-3-(1-methoxypropan-2-yl)-N-(5-((2-(1-methyl-11H-pyrazol-4-yl)pyridin-4-yl)oxy)pyridin-2-yl)-2-oxoimidazolidine-1-carboxamide]	< 10	10 to 100	< 10	< 10	10 to 100	
COCCN1CCN(C(=O)Nc2ccc(Oc3ccnc(-c4cnn(C)c4)c3)c(C)n2)C1=O [Example 18, 3-(2-methoxyethyl)-N-(6-methyl-5-((2-(1-methyl-1H-pyrazol-4-yl)pyridin-4-yl)oxy)pyridin-2-yl)-2-oxoimidazolidine-1-carboxamide]	10 to 100	10 to 100	100 to 1000	10 to 100	100 to 1000	20
Cc1nc(NC(=O)N2CCN(C3CCCC3)C2=O)ccc1Oc1ccnc(-c2cnn(C)c2)c1 [Example 29, 3-cyclopentyl-N-(6-methyl-5-((2-(1-methyl-1H-pyrazol-4-yl)pyridin-4-yl)oxy)pyridin-2-yl)-2-oxoimidazolidine-1-carboxamide]	< 10	10 to 100	< 10	< 10	< 10	2

Second part, led by results:

IC50 [1] [nM]	IC50 [2] [nM]	IC50 [3] [nM]	IC50 [4, 6] [nM]	SMILES	IC50 [5] [nM]	IC50 ([4]; Table 4, read-out: c-FMS IC50) [nM]
10 to 100	10 to 100	10 to 100	10 to 100	COCCCN1CCN(C(=O)Nc2ccc(Oc3ccnc(-c4cnn(C)c4)c3)c(C)n2)C1=O [Example 19, 3-(3-methoxypropyl)-N-(6-methyl-5-((2-(1-methyl-1H-pyrazol-4-yl)pyridin-4-yl)oxy)pyridin-2-yl)-2-oxoimidazolidine-1-carboxamide]	10 to 100	
10 to 100	10 to 100	100 to 1000	10 to 100	Cc1nc(NC(=O)N2CCN(C3COC3)C2=O)ccc1Oc1ccnc(-c2cnn(C)c2)c1 [Example 20, N-(6-methyl-5-((2-(1-methyl-1H-pyrazol-4-yl)pyridin-4-yl)oxy)pyridin-2-yl)-3-(oxetan-3-yl)-2-oxoimidazolidine-1-carboxamide]	10 to 100	
10 to 100	10 to 100	10 to 100	10 to 100	Cn1cc(-c2cc(Oc3ccc(NC(=O)N4CCN(CCOC(F)(F)F)C4=O)nc3)ccn2)cn1 [Example 21, N-(5-((2-(1-methyl-1H-pyrazol-4-yl)pyridin-4-yl)oxy)pyridin-2-yl)-2-oxo-3-(2-(trifluoromethoxy)ethyl)imidazolidine-1-carboxamide]	10 to 100	
< 10	10 to 100	10 to 100	< 10	Cc1nc(NC(=O)N2CCN(C3CCCCC3)C2=O)ccc1Oc1ccnc(-c2cnn(C)c2)c1 [Example 22, 3-cyclohexyl-N-(6-methyl-5-((2-(1-methyl-1H-pyrazol-4-yl)pyridin-4-yl)oxy)pyridin-2-yl)-2-oxoimidazolidine-1-carboxamide]	< 10	
< 10	10 to 100	< 10	< 10	Cn1cc(-c2cc(Oc3ccc(NC(=O)N4CCN(C5CCC(F)(F)CC5)C4=O)nc3)ccn2)cn1 [Example 25, 3-(4,4-difluorocyclohexyl)-N-(5-((2-(1-methyl-1H-pyrazol-4-yl)pyridin-4-yl)oxy)pyridin-2-yl)-2-oxoimidazolidine-1-carboxamide]	< 10	
10 to 100	10 to 100	10 to 100	< 10	Cc1nc(NC(=O)N2CCN(C3CCC(F)(F)CC3)C2=O)ccc1Oc1ccnc(-c2cnn(C)c2)c1 [Example 26, 3-(4,4-difluorocyclohexyl)-N-(6-methyl-5-((2-(1-methyl-1H-pyrazol-4-yl)pyridin-4-yl)oxy)pyridin-2-yl)-2-oxoimidazolidine-1-carboxamide]	< 10	
10 to 100	< 10	< 10	< 10	Cc1nc(NC(=O)N2CCN(C(C)(C)C)C2=O)ccc1Oc1ccnc(-c2cnn(C)c2)c1 [Example 33, 3-(tert-butyl)-N-(6-methyl-5-((2-(1-methyl-1H-pyrazol-4-yl)pyridin-4-yl)oxy)pyridin-2-yl)-2-oxoimidazolidine-1-carboxamide]	10 to 100	
10 to 100	< 10	< 10	< 10	Cn1cc(-c2cc(Oc3ccc(NC(=O)N4CCN(C(C)(C)C)C4=O)nc3)ccn2)cn1 [Example 34, 3-(tert-butyl)-N-(5-((2-(1-methyl-1H-pyrazol-4-yl)pyridin-4-yl)oxy)pyridin-2-yl)-2-oxoimidazolidine-1-carboxamide]	10 to 100	
< 10	< 10	100 to 1000	< 10	Cc1nc(NC(=O)N2CCN(C(C)C)C2=O)ccc1Oc1ccnc(-c2cnn(C)c2)c1 [Example 35, 3-isopropyl-N-(6-methyl-5-((2-(1-methyl-1H-pyrazol-4-yl)pyridin-4-yl)oxy)pyridin-2-yl)-2-oxoimidazolidine-1-carboxamide]	10 to 100	
